Experimental data from ChEMBL document CHEMBL4311992, “Discovery of 3-(((9H-purin-6-yl)amino)methyl)-4,6-dimethylpyridin-2(1H)-one derivatives as novel tubulin polymerization inhibitors for treatment of cancer” (Eur J Med Chem, 2019).
The source made the active and inactive calls. The calls are words filed in the database; no cut-off is given here.

Columns and labels:
[1] = target: Protein kinase C iota type (Homo sapiens) (UniProt P41743); assay: Inhibition of recombinant full-length human PKCiota assessed as residual activity at 10 uM using ERMRPRKRQGSVRRRV as substrate measured after 40 mins in presence of [gamma33P]ATP by scintillation counting method
Sequence of Protein kinase C iota type (Homo sapiens) (P41743 whole entry, the tested form may be a part): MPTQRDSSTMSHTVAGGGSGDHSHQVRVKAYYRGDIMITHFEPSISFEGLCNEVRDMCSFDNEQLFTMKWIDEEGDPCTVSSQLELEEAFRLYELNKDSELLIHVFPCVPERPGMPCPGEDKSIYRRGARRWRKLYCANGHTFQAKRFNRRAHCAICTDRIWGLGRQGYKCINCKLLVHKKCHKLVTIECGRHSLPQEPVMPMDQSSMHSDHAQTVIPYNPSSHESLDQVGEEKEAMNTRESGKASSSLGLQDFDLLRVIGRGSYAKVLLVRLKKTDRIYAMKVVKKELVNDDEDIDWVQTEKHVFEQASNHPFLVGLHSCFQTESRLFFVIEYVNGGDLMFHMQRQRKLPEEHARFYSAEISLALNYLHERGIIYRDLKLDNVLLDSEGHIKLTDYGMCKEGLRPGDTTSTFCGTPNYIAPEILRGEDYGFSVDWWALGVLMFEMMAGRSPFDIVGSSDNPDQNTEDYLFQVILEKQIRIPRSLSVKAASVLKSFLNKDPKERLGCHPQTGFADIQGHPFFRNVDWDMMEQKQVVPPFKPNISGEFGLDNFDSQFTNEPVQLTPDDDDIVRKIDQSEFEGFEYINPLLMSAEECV

[2] = target: LIM domain kinase 1 (Homo sapiens) (UniProt P53667); assay: Inhibition of recombinant human LIMK1 (285 to 638 residues) assessed as residual activity at 10 uM using cofilin as substrate measured after 40 mins in presence of [gamma33P]ATP by scintillation counting method
[3] = target: Cyclin-dependent kinase 14/Cyclin-Y (Homo sapiens) (UniProt O94921+Q8ND76); assay: Inhibition of human CDK14/cyclinY assessed as residual activity at 10 uM by radiometric method; format: protein-complex assay
PLC-PRF-5 = assay: Antiproliferative activity against human PLC/PRF/5 cells assessed as reduction in cell viability after 72 hrs by MTT assay; format: functional, cell-based; conditions: PLC-PRF-5, 72 h
[4] = target: Protein kinase C epsilon type (Homo sapiens) (UniProt Q02156); assay: Inhibition of recombinant human PKCepsilon (2 to end residues) assessed as residual activity at 10 uM using ERMRPRKRQGSVRRRV as substrate measured after 40 mins in presence of [gamma33P]ATP by scintillation counting method
Sequence of Protein kinase C epsilon type (Homo sapiens) (Q02156 whole entry): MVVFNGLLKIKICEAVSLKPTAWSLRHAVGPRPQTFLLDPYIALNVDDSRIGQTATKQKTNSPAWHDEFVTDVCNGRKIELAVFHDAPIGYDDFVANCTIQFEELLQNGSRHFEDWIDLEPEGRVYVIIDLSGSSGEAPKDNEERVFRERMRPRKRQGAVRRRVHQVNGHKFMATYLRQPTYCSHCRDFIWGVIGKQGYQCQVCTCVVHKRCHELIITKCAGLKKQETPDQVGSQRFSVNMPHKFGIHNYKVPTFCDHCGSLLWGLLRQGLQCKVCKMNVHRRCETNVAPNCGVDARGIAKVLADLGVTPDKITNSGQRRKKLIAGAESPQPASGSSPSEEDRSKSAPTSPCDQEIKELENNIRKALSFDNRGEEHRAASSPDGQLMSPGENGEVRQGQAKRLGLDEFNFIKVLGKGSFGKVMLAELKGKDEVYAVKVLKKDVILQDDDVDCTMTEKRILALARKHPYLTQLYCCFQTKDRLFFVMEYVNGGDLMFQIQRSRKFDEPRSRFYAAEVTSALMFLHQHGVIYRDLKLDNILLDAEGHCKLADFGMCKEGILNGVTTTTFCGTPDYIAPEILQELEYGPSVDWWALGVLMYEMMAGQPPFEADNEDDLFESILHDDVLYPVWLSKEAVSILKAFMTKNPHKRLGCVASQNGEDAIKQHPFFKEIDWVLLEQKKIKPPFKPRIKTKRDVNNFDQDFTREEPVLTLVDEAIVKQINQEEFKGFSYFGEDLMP

SW-620 [5] = assay: Induction of apoptosis in human SW620 cells assessed as necrotic cells at 50 nM measured after 48 hrs by Annexin V-FITC/propidium iodide staining-based flow cytometry (reference value: 2.71%); format: functional
[6] = Toxicity in Balb/c mouse spleen at 80 mg/kg after 4 weeks by hematoxylin and eosin staining-based assay; format: organism-based; conditions: in vivo, 672 h
[7] = target: Serine/threonine-protein kinase ICK (Homo sapiens) (UniProt Q9UPZ9); assay: Inhibition of recombinant human ICK (1 to 312 residues) assessed as residual activity at 10 uM using RRRFRPASPLRGPPK as substrate measured after 40 mins in presence of [gamma33P]ATP by scintillation counting method
Sequence of Serine/threonine-protein kinase ICK (Homo sapiens) (Q9UPZ9 whole entry, the tested form may be a part): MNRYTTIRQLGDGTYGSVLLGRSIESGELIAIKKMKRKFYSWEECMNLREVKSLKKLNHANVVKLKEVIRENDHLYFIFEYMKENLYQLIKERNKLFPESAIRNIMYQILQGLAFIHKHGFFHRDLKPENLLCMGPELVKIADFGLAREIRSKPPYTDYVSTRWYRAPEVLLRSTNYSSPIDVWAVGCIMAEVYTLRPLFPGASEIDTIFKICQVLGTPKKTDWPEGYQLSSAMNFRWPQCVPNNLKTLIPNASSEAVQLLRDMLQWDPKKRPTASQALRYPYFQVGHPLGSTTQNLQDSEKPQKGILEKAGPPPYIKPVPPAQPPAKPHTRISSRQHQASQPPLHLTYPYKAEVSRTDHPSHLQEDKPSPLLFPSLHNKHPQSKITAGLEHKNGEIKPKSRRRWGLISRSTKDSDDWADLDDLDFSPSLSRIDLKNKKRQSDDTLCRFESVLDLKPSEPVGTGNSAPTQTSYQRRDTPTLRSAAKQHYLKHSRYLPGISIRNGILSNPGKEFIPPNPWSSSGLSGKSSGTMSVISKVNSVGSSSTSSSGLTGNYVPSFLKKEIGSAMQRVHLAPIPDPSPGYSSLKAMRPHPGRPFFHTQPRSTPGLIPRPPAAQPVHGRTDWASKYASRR

[8] = target: Calcium/calmodulin-dependent protein kinase type 1D (Homo sapiens) (UniProt Q8IU85); assay: Inhibition of recombinant full-length human CaMK1delta assessed as residual activity at 10 uM using calmodulin as substrate measured after 40 mins in presence of [gamma33P]ATP by scintillation counting method
Sequence of Calcium/calmodulin-dependent protein kinase type 1D (Homo sapiens) (Q8IU85 whole entry, looked up): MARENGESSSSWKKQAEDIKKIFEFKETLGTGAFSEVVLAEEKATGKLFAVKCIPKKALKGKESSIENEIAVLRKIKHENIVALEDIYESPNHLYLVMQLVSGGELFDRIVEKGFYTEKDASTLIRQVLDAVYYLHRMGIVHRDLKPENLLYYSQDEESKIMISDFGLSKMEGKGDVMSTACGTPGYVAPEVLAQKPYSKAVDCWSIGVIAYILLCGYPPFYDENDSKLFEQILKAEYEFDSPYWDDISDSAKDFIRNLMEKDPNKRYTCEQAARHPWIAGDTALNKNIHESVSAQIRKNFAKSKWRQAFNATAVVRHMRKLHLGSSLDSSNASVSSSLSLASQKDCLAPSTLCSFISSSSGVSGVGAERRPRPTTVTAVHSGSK

[9] = target: Serine/threonine-protein kinase pim-3 (Homo sapiens) (UniProt Q86V86); assay: Inhibition of recombinant human Pim3 (2 to end residues) assessed as residual activity at 10 uM using RSRHSSYPAGT as substrate measured after 40 mins in presence of [gamma33P]ATP by scintillation counting method
[10] = test system: Tyrosine-protein kinase ABL1 (Homo sapiens), P00519 [Q252H]; assay: Inhibition of recombinant human ABL Q252H mutant (27 to end residues) assessed as residual activity at 10 uM using EAIYAAPFAKKK as substrate measured after 40 mins in presence of [gamma33P]ATP by scintillation counting method
[11] = target: Mitogen-activated protein kinase kinase kinase 3 (Homo sapiens) (UniProt Q99759); assay: Inhibition of recombinant full-length human MEKK3 assessed as residual activity at 10 uM using myelin basic protein as substrate measured after 40 mins in presence of [gamma33P]ATP by scintillation counting method
Sequence of Mitogen-activated protein kinase kinase kinase 3 (Homo sapiens) (Q99759 whole entry): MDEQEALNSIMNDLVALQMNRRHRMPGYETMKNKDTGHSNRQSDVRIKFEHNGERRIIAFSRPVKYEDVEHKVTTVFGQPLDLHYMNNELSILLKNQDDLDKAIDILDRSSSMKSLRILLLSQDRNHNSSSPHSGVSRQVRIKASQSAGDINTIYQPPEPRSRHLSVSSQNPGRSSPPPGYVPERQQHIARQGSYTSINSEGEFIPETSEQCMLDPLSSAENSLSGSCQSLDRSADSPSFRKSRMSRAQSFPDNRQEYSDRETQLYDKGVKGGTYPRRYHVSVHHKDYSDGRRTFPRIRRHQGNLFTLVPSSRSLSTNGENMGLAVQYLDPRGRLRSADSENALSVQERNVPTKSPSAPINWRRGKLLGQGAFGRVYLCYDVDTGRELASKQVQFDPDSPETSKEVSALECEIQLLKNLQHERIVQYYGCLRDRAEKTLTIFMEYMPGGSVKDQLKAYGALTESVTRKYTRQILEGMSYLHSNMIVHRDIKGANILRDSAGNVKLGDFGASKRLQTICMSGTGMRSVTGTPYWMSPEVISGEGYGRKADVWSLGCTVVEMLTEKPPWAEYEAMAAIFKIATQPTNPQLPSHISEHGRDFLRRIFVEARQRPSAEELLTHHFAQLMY

[12] = target: Tyrosine-protein kinase Fgr (Homo sapiens) (UniProt P09769); assay: Inhibition of recombinant human FGR (2 to end residues) assessed as residual activity at 10 uM using poly(Glu, Tyr) 4:1 as substrate measured after 40 mins in presence of [gamma33P]ATP by scintillation counting method
[13] = test system: Tyrosine-protein kinase BTK (Homo sapiens), Q06187 [R28H]; assay: Inhibition of full-length recombinant human BTK R28H mutant assessed as residual activity at 10 uM using LSNLYHQGKFLQTFCGSPLYRRR as substrate measured after 40 mins in presence of [gamma33P]ATP by scintillation counting method
SW-620 [14] = assay: Cell cycle arrest in human SW620 cells assessed as up regulation of CDK1 expression up to 150 nM after 24 hrs by Western blot analysis; format: functional, cell-based
[15] = target: Phosphatidylinositol 4-phosphate 5-kinase type-1 alpha (Homo sapiens) (UniProt Q99755); assay: Inhibition of recombinant full-length human PIP5K1alpha assessed as residual activity at 10 uM using phosphatidylinositol 4-phosphate as substrate measured after 40 mins by HTRF assay
[16] = target: Serine/threonine-protein kinase 16 (Homo sapiens) (UniProt O75716); assay: Inhibition of human STK16 assessed as residual activity at 10 uM by radiometric method
[17] = Cardiotoxicity in nude BALB/c mouse at 80 mg/kg, po administered once daily for 4 weeks measured post-last dose by hematoxylin and eosin staining-based assay; format: toxicity, organism-based; conditions: in vivo, 672 h
[18] = target: 3-phosphoinositide-dependent protein kinase 1 (Homo sapiens) (UniProt O15530); assay: Inhibition of recombinant human PDK1 (52 to end residues) assessed as residual activity at 10 uM using PDKtide as substrate measured after 40 mins in presence of [gamma33P]ATP by scintillation counting method
Sequence of 3-phosphoinositide-dependent protein kinase 1 (Homo sapiens) (O15530 whole entry): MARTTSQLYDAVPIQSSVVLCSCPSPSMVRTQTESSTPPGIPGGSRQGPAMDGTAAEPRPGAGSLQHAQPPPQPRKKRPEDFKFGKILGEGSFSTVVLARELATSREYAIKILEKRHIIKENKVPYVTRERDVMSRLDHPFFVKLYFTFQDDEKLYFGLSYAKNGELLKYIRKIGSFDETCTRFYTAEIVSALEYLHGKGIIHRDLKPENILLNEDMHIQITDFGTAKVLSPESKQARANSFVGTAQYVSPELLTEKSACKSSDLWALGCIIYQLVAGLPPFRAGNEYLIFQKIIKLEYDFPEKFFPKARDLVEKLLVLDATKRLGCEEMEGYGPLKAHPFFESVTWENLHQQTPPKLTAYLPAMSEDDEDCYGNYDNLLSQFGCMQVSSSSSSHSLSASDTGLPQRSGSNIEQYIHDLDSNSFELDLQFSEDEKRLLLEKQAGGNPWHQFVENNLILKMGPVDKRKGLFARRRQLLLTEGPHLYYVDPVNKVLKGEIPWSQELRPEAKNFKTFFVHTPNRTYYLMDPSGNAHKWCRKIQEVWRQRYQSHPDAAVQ

[19] = target: CDK17/Cyclin-Y (Homo sapiens) (UniProt Q00537+Q8ND76); assay: Inhibition of human CDK17/cyclinY assessed as residual activity at 10 uM using PKSPKARKKL as substrate measured after 120 mins in presence of [gamma33P]ATP by scintillation counting method; format: protein-complex assay
[20] = target: Serine/threonine-protein kinase pim-2 (Homo sapiens) (UniProt Q9P1W9); assay: Inhibition of recombinant human Pim2 (2 to end residues) assessed as residual activity at 10 uM using RSRHSSYPAGT as substrate measured after 40 mins in presence of [gamma33P]ATP by scintillation counting method
[21] = target: Calcium/calmodulin-dependent protein kinase type II subunit gamma (Homo sapiens) (UniProt Q13555); assay: Inhibition of recombinant full-length human CaMK2gamma (1 to 330 residues) assessed as residual activity at 10 uM using calmodulin as substrate measured after 40 mins in presence of [gamma33P]ATP by scintillation counting method
Sequence of Calcium/calmodulin-dependent protein kinase type II subunit gamma (Homo sapiens) (Q13555 whole entry, the tested form may be a part): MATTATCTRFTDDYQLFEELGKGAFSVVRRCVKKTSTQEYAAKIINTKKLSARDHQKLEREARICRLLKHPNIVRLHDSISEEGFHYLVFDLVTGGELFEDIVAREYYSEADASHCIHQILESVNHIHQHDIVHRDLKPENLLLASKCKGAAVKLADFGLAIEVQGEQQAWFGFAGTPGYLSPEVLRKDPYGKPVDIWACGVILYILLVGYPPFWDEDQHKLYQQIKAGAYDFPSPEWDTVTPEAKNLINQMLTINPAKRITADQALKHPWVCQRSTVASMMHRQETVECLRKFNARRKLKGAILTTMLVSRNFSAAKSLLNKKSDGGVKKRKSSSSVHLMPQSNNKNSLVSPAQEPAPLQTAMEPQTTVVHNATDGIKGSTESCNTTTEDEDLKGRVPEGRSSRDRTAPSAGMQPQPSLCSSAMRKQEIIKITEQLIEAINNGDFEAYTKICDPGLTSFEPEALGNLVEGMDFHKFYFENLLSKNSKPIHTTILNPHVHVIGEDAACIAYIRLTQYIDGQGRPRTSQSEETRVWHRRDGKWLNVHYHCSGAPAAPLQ

[22] = target: Mitogen-activated protein kinase 1 (Mus musculus) (UniProt P63085); assay: Inhibition of mouse MAPK2 assessed as residual activity at 10 uM
[23] = target: Serine/threonine-protein kinase NLK (Homo sapiens) (UniProt Q9UBE8); assay: Inhibition of recombinant human NLK (121 to end residues) assessed as residual activity at 10 uM using myelin basic protein as substrate measured after 40 mins in presence of [gamma33P]ATP by scintillation counting method
Sequence of Serine/threonine-protein kinase NLK (Homo sapiens) (Q9UBE8 whole entry, the tested form may be a part): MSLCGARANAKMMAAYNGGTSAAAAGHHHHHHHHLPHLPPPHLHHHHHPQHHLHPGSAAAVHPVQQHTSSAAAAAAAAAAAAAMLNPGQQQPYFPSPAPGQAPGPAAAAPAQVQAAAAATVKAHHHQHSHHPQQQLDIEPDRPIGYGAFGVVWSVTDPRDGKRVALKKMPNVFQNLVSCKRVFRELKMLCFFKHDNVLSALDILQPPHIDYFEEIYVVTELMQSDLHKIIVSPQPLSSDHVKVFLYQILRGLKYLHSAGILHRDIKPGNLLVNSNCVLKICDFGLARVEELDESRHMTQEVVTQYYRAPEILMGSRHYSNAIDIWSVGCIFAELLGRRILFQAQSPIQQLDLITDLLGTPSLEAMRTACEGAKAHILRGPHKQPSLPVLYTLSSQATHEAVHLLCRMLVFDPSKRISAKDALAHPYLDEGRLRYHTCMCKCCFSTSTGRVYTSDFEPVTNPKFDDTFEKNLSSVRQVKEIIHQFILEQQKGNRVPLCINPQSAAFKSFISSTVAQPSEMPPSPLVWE

[24] = target: Receptor tyrosine-protein kinase erbB-4 (Homo sapiens) (UniProt Q15303); assay: Inhibition of recombinant human ErbB4 (706 to 991 residues) assessed as residual activity at 10 uM using poly (Glu, Tyr) 4:1 as substrate measured after 40 mins in presence of [gamma33P]ATP by scintillation counting method

Work on `Cc1cc(C)c(CNc2nc(Cl)nc3c2ncn3C2CCCC2)c(=O)[nH]1` yielded an Activity [1] of 105%, an Activity [2] of 101% and an Activity [3] of 96.5%. It also gave an IC50 (PLC-PRF-5) of 286 nM, an Activity [4] of 95% and an Activity (SW-620 [5]) of 6.3%. For the same molecule, the Activity [6] was “Non-Toxic”, the Activity [7] was 114% and the Activity [8] was 107%. It also gave an Activity [9] of 107%, an Activity [10] of 106% and an Activity [11] of 106%. The Activity [12] was 94.5%, the Activity [13] was 98% and the Activity (SW-620 [14]) was “Active”. The Activity [15] was 100%, the Activity [16] was 102% and the Activity [17] was “Non-Toxic”. The Activity [18] was 91%, the Activity [19] was 102% and the Activity [20] was 104%. The Activity [21] was 99.5%, the Activity [22] was 97.5% and the Activity [23] was 93.5%. The Activity [24] was 103%.
